Reference: patent publication EP0423032A2, “Process for the preparation of isoxazolyl and isothiazolyl imidazobenzodiazepines, new derivatives thus obtained, their use as medicaments and compositions containing them” (ROUSSEL-UCLAF, priority 1989, dated 1991)

tested on: récepteurs des benzodiazépines; assay: In vivo measurement of binding to benzodiazepine receptors, method of Goeders and Kuhar
Excerpt: La mesure in vivo de la liaison aux récepteurs des benzodiazépines a été effectuée selon la méthode décrite par Goeders N.E. et Kuhar M.J. Life, Sciences (1985) 37, 345. TABLEAU II

| SMILES | liaison in vivo DE 50 mg/kg IP |
| --- | --- |
| CN1Cc2c(-c3cc(C4CC4)no3)ncn2-c2ccccc2C1=O [Exemple 5, 3-(3-cyclopropylisoxazol-5-yl) 5,6-dihydro 5-méthyl 6-oxo-4H-imidazo [1,5-a] [1,4]-benzodiazépine] | 2,0 mg/kg |
| Cc1cc(-c2ncn3c2CN(C)C(=O)c2ccccc2-3)on1 [Exemple 7, 5,6-dihydro 5-méthyl 6-oxo 3-(3-méthylisoxazol-5-yl) 4H-imidazo [1,5-a] [1,4]-benzodiazépine] | 0,62 mg/kg |
| CCc1cc(-c2ncn3c2CN(C)C(=O)c2ccccc2-3)on1 [Exemple 8, 5,6-dihydro 5-méthyl 6-oxo 3-(3-éthylisoxazol-5-yl) 4H-imidazo [1,5-a] [1,4]-benzodiazépine] | > 3,0 mg/kg |
